“Also recorded” adds a separate entry of the source.
Legend:
[1] = system: fourth-order PAs; experiment: Pressure myography of mouse fourth-order PAs
Description: Mouse fourth-order PAs (˜50 μm) were cannulated on glass micropipettes in a pressure myography chamber (The Instrumentation and Model Facility; University of Vermont; Burlington; VT; USA) and pressurized to a physiological pressure of 15 mm Hg (24). Briefly, freshly dissected lungs were placed in ice cold HEPES buffer in a dissection plate. The left lung was stretched and pinned down, with ventral side facing up. First, pulmonary veins, and then the airway were cut open to gain access to the pulmonary arteries underneath. Once PAs were visible, they were gently separated from surrounding tissue (25). Arteries were superfused with bicarbonate-physiological salt solution (PSS; 119 mmol/L NaCl; 4.7 mmol/L KCl; 1.2 mmol/L KH2PO4; 1.2 mmol/L MgCl2 hexahydrate; 2.5 mmol/L CaCl2) dihydrate; 7 mmol/L dextrose; and 24 mmol/L NaHCO3) at 37° ° C. and bubbled with 20% O2/5% CO2 to maintain the pH at 7.4. Approximately 20% PAs from normal mice develop myogenic tone, whereas ˜65% PA from Su+CH mice show myogenic tone at 15 mm Hg. Due to the relatively small percentage of PAs from normal mice showing myogenic tone, we pre-constricted all PAs with 30 nmol/L U46619 (a thromboxane A2 receptor agonist). […] U46619 was added to the chamber immediately, before the arteries could develop myogenic tone. Before measuring vascular reactivity, arteries were treated with NS309 (1 μmol/L), a direct activator of endothelial IK/SK channels, to assess endothelial health. […] Changes in arterial diameter were recorded at a 60-ms frame rate using a charge-coupled device camera and edge-detection software (IonOptix LLC; Westwood; MA; USA) (11, 26). At the end of each experiment, Ca^2+-free PSS (119 mmol/L NaCl; 4.7 mmol/L KCl; 1.2 mmol/L KH2PO4; 1.2 mmol/L MgCl2 hexahydrate; 7 mmol/L dextrose; 24 mmol/L NaHCO3; and 5 mmol/L EGTA) was applied to assess the maximum passive diameter. Percent constriction was calculated by:
[formula] • where Diameterbefore is the diameter of the artery before treatment and Diameterafter is the diameter after treatment. Percent dilation was calculated by:
[formula] • where Diameterbasal is the stable diameter before drug treatment, Diameterdilated is the diameter after drug treatment, and Diameterca-free is the maximum passive diameter.

[2] = system: endothelial IK/SK channels; experiment: Whole-cell patch-clamp in freshly isolated ECs from small PAs; assay type: cell-based, mouse; details: NS309 1 μmol/L; 250-ms voltage ramp −100 to +50 mV; ECs from N and Su+CH mice
Description: ECs were freshly isolated from PAs following a previously established protocol (21, 24). […] Worthington Biochemical Corporation; Lakewood; NJ; USA) for 30 minutes at 37° C. With this protocol for endothelial cell isolation, more than 95% of cells are CD31-positive. Whole-cell currents were measured at room temperature using conventional whole-cell patch-clamp electrophysiology. The bath solution consisted of 10 mmol/L HEPES, 134 mmol/L NaCl, 6 mmol/L KCl, 2 mmol/L CaCl2), 1 mmol/L MgCl2 hexahydrate, and 7 mmol/L dextrose (adjusted to pH 7.4 with NaOH). […] The pipette solution for conventional patch clamp consisted of 10 mmol/L HEPES, 123.2 mmol/L KCl, 10 mmol/L NaCl, 5.5 mmol/L MgCl2, 0.2 mmol/L CaCl2) and 5 mmol/L HEDTA (adjusted to pH 7.2 with 16.8 mm KOH) and contained 3 μm free-Ca^2+ and 1 mmol/L free-Mg^2+, as calculated using the Max-Chelator program (Chris Patton; Stanford University; Stanford; CA; USA). […] Data were acquired using a Multiclamp 700B amplifier connected to a Digidata 1550B system and analyzed using Clampfit 11.1 software (Molecular Devices, San Jose, CA, USA). […] IK/SK channel currents induced by the IK/SK channel agonist NS309 (1 μmol/L) were recorded following application of a 250-ms voltage ramp from -100 mV to +50 mV. […]

[3] = system: pulmonary arteries from PH patient; experiment: Pressure myography of small pulmonary arteries from a human subject with PH; details: ~50 μm arteries at 15 mm Hg pre-constricted with U46619; n=3 arteries
Description: We tested whether IK/SK channel activation dilates pulmonary arteries from human subjects with PH. Deidentified human lung wedge samples were obtained from explanted lung during lung transplantation surgeries in a PH patient, in accordance with the policies of the University of Virginia Institutional Review Board (IRB #19044). Informed consent was obtained after the nature and possible consequences of the studies were explained. Multiple small pulmonary arteries (˜50 μm) were dissected and used for pressure myography experiments. Pulmonary arteries were cannulated at both ends and pressurized to a physiological intraluminal pressure of 15 mm Hg. The arteries were pre-constricted using U46619 (U466, thromboxane A2 receptor agonist, FIG. 6). Addition of NS309 (IK/SK channel agonist) dilated the pulmonary arteries from PH patient (FIG. 6).

## O=C1Nc2c(ccc(Cl)c2Cl)C1=NO [NS309, 6,7-dichloro-1H-indole-2,3-dione 3-oxime]
[1]; NS309 1 μmol/L
  Dilation of PAs that developed myogenic tone, N vs Su+CH: not different between N and Su+CH groups
[1]; NS309 0.3-1 μmol/L, PAs at 15 mm Hg pre-constricted with U46619 30 nmol/L
  Dilation of small PAs, N vs Su+CH: not different between N and Su+CH mice; also recorded: not different between PAs from control and CH+Su mice
[2]
  Outward currents at 0 mV in ECs, N vs Su+CH: not different between ECs from N and Su+CH groups
[3]
  Dilation of human PH pulmonary arteries: dilated

Source: patent US20240216343A1, “ENDOTHELIAL IK AND SK CHANNEL ACTIVATION TO TREAT PULMONARY HYPERTENSION” (UNIVERSITY OF VIRGINIA PATENT FOUNDATION, priority 2023, published 2024)
